Data from patent US20150377889A1, “GALECTIN-3 AS A MARKER FOR PROSTATE CANCER” (Wayne State University, priority 2013, published 2015).

What was measured:
[1] = tested on: co-cultured BAMEC and LNCaP cells; assay: Three-dimensional growth and tube formation assay, BAMEC/LNCaP co-culture on […]; format: cell-based, bovine, human; conditions: for tube formation: loops / tube formation: units of tubes: 10 μg/ml protein added to medium, 36 hr; for tube formation: loops: control 0; for tube formation: units of tubes: control 73; for branching morphogenesis of endothelial cells: 10 μg/ml protein, BAMEC/LNCaP co-culture
Method: Three-dimensional Growth and Tube Formation Assay. To analyze in vitro angiogenesis and interactions between epithelial and endothelial cell formation of tubular networks by co-cultured BAMEC and LNCaP cells, a three-dimensional growth and tube formation assay was performed. Briefly, […]® (10 μl) was added to each chamber of the slide (μ-Slide, ibidi, Martinsried, Germany) and gelled by a 30-min incubation at room temperature, after which 15,000 BAMEC and 5000 LNCaP cells were plated onto the gel in 50 μl of Eagle's minimal essential complete medium. In some chambers, full-length galectin-3 or its fragments were added. After 36 hr, three-dimensional structures were observed under phase contrast microscope and photographed. Images were acquired with an Olympus IX71 microscope supporting a Hamamatsu ORCA-ER video camera. Tube formation image analysis was done using the web-based Image Analysis Win-Tube module of Wimasis online software.
Three-dimensional heterotypic co-cultures of epithelial (LNCaP) and endothelial (BAMEC) cells were performed on […]® to study tube formation in the presence of 10 μg/ml galectin-3 and its fragments. […] FIG. 2B presents a quantitative evaluation of the tube formation assay.

LNCaP cells = assay: Chemotaxis assay (Boyden chamber); format: cell-based, human; conditions: 10 μg/ml, 5 hr, compared with control or either of the two fragments
Method: Chemotaxis. This assay was performed using a Boyden chamber (Neuroprobe). In the lower chamber, the chemo-attractant […]® (BD Biosciences) alone or mixed with various concentrations of recombinant galectin-3, galectin-3 1-107, or galectin-3 108-250 was added. LNCaP (5×10^4) cells suspended in basic DMEM were loaded in the upper chamber. The two chambers were separated by a polycarbonate filter of 5-micron pore size and incubated in a 37° C. tissue culture incubator for 5 hr, after which the filter was removed, the cells on top of the filter were wiped off, and the migrated cells were fixed, stained using Protocol Hema 3 stain set (Fisher Scientific), and counted under microscope. Each assay was carried out in triplicate.
The effects of galectin-3 1-107 and 108-250 fragments, as well as full-length galectin-3 on migration of LNCaP cells in a chemotaxis assay were also tested.

[2] = tested on: LNCaP, Du145, and PC3M cell lines; assay: Wound-healing (scratch) assay; format: cell-based, human; conditions: 24 hr, compared with the control
Method: Wound-healing Assay. A wound-healing assay, the scratch assay, was performed according to the protocol published in Liang, et al. (2007), Nat. Protoc. 2, 329-333. Briefly, in this scratch assay 60-mm dishes were coated with ECM and incubated overnight, unbound ECM was removed and the dishes were blocked with bovine serum albumin. Subconfluent growing cells were resuspended in a tissue culture dish by washing cells with PBS, adding versene containing trypsin, and mixing cells with medium containing serum. Cells were then plated onto the prepared 60-mm dish to create a confluent monolayer, and incubated for 6 hr at 37° C.
The cell lines LNCaP (null galectin-3), DU145 (stable clone with reduced galectin-3 expression), and PC3M were used to examine the effect of full-length galectin-3, galectin-3 1-107, and galectin-3 108-250 on prostate cancer cell motility using the scratch assay. The assay was performed with LNCaP, Du145, and PC3M cultured cell lines stimulated by full-length galectin-3, and fragments galectin-3 1-107 and 108-250. A uniform wound was made in each plate using a 1-μl pipette tip. The wound area was observed immediately, then at 24 hr after creation the cells were counted. Cells were grown under identical conditions.

Row | Substance | tube formation: loops [1] | tube formation: units of tubes [1] [units] | branching morphogenesis of endothelial cells [1] | migration of LNCaP cells toward MATRIGEL (LNCaP cells) | prostate cancer cell motility [2]
1 | full-length galectin-3: recombinant full-length human galectin-3 protein (SEQ ID NO:1), overexpressed in Escherichia coli | 12 | 127 | induced branching morphogenesis | significantly higher | promotes prostate cancer cell motility
2 | galectin-3 108-250: recombinant fragment 108-250 of human galectin-3 (SEQ ID NO:3), contains carbohydrate recognition domain | 0 | 76 | failed to do so | – | did not show a significant increase in motility
